We go through seven compounds from publication PMC9822352, “Design, Synthesis and Evaluation of New Multifunctional Benzothiazoles as Photoprotective, Antioxidant and Antiproliferative Agents” (Molecules, 2022).

Each structure is given as a SMILES string. Where “and” joins values, the source holds several entries; their conditions need not be identical. Identical values can stand only once.

Series [1] in a line: In vitro filtering parameters of O/W sunscreen formulation containing 3% compound (modified Diffey-Robson, PMMA plates). Conditions: 3% in formulation, before irradiation. From the text:
All synthesized compounds were formulated at 3% and their photoprotective efficacy, determined by spectrophotometric measurements using the modified Diffey-Robson method, was compared with that of the lead compound PBSA (used at 3% in the same formulation) and using the base without active as a control (Table 2).
The synthesized compounds were incorporated at a concentration of 3% in a typical oil-in-water sunscreen formulation, to evaluate the filtering parameters, and have the following ingredient composition:
INCI (International Nomenclature Cosmetic Ingredients): aqua, glycerin, Euxyl PE 9010, xanthan gum, Tribehenin PEG-20 Esters, cetearyl alcohol, dicaprylyl carbonate, PPG-26-Buteth-26 (and) PEG-40 Hydrogenated Castor Oil (and) water, C12-C15 Alkyl Benzoate, and Sodium hydroxide (sol. 10%).
As previously reported the protocol indicates to spread 32.5 mg of each formulation on 25 cm^2 PMMA plates with the fingers. Each formulation was tested in triplicate, and five measurements were recorded for each dish, following a 15–30 min incubation in the dark at room temperature. UV transmittance data was recorded using a UV-VIS spectrophotometer in the range 290–400 nm. The blank plate, SPF, UVA-PF and critical wavelength were obtained by SPF Calculator software (version 2.1), Shimadzu, Milan, Italy).

A short description of series [2]: UV spectra in solution (MeOH-DMSO): λmax and molar extinction coefficient. Particulars: for ε (molar extinction coefficient): at λmax, Lambert-Beer equation, in M-1 cm-1 (unit assumed); for λmax: solution in MeOH-DMSO, 290–400 nm. Format: physicochemical. The method, then: We next investigated the protective potential against UV radiation of each compound. Specifically, in vitro tests were conducted to determine the parameters related to absorption in the UV spectrum and those fundamental to the relative evaluation of the filtering potential and thus candidature as possible UV sunscreen ingredients of the candidates under examination, including λ critical and SPF (sun protection factor). Since the SPF is correlated to the UV quantitative absorption of the substances, the wavelength of maximum absorption (λmax) and the molar extinction coefficient (ε) of the derivatives in solution (MeOH-DMSO) were evaluated (Figures S1 and S2, Supplementary Materials). The UV spectra of the compounds BZTidr1–6 and BZTcin1–5 were recorded in the UVA-UVB range (290–400 nm) to evaluate their profile and compare it to that of the PBSA, a commercial UVB filter that has a λmax of 302 nm. After this peak, the absorbance of PBSA drops, reaching almost zero in the 325 nm range, and thus not providing absorption in the UVA region.
Once the λmax of each derivative was established, the molar extinction coefficient ε was calculated by applying the Lambert-Beer equation (Table S1, Supplementary Materials): the higher this value, the greater the ability of the compound under examination to absorb UV radiation. […] The excellent values of BZTidr1, BZTidr2 and BZTidr3 are ascribed to the aforementioned hyperchromic shift. In regard to the BZTcin1–5 series, the molar extinction coefficients calculated were very high, and the best values were those of BZTcin1, BZTcin2 and BZTcin3, also attributable to the hyperchromic shift of the absorption spectra. For both series, the excellent absorption capacity of ultraviolet radiation can be traced back to the high π-type conjugation that characterizes them.

Series [3] is described as follows: FRAP (Ferric Reducing Antioxidant Power) assay. Particulars: Trolox standard, 37 °C 10 min, 593 nm; mean ± SEM. From the text:
The FRAP (Ferric Reducing Antioxidant Power) test allows the measurement of the ability of antioxidants to reduce ferric ion to ferrous. This method represents one of the simplest, quickest and least expensive methods for the determination of reducing properties on oxidized species in vitro.
The FRAP test (Ferric Reducing Antioxidant Power) is based on a colorimetric reaction and evaluates the ability of a sample of reducing ferric ions to ferrous ion while complexed with TPTZ (2,4,6-trispyridil-s-triazine). The FRAP solution was prepared from 0.1 M acetate buffer (pH 3.6), 10 mmol/L of TPTZ in 40 mM HCl, and 20 mM solution of FeCl3, with a 10:1:1 ratio, as described. Then, 1.9 mL of this solution was incubated with 0.1 mL of the sample solution at 37 °C for 10 min. The absorbance was read with a UV-Vis spectrophotometer at a 593 nm wavelength, relative to the maximum peak of absorbance of Fe^2+-TPTZ complex. Trolox® was used as a standard and the results are expressed as µmolTE/g.

A short description of series [4]: Photostability study of 3% formulation (post-irradiation filtering parameters). Particulars: 3% in formulation, post irradiation. From the text: To outline the efficacy and safety profile of a sunscreen formulation, it is essential to provide data relating to photostability. It is possible to provide photodegradation data by recording, pre- and post-irradiation, the transmittance of PMMA plates with finger-coat formulations subjected to a dose of UVA capable of causing erythema, according to the criteria of Garoli et al.. By means of Equations (2) and (3) it was possible to evaluate the residual percentage of SPF in vitro and of UVA-PF for all the prepared formulations. Of greatest interest are the values obtained for the derivatives BZTcin2 and BZTcin4.
To determine the photostability, the previously reported method was adopted, which consists in preparing each plate as mentioned above and subjecting it to solar irradiation quantified as the minimum dose of UVA equivalent to an effective radiant exposure of erythema. The protocol stipulates that, before and after exposure to sunlight, the transmission of the sun protection layer in the range of 290–400 nm is recorded.
Using Equations (2) and (3) below, the residual percentage of SPF in vitro (% SPFeff.) and UVA-PF (% UVA-PFeff.) have been obtained, which, if greater than or equal to 80, can classify a filter as photostable. %SPFeff. = in vitro SPFafter/in vitro SPFbefore × 100(2) %UVA − PFeff. = UVA − PFafter/UVA − PFbefore × 100(3)

The nature of series [5]: DPPH radical scavenging test. Conditions: mean ± SEM; for DPPH (% Inhibition): compound at 1 mg/mL, 30 min, 517 nm. How it is done: The DPPH assay is widely used, and the simplest and fastest in vitro method for evaluating the antioxidant power of extracts or isolated compounds; it is based on the depletion of the 2,2-diphenyl-1-picrylhydrazyl radical (DPPH˙) by an antioxidant molecule with scavenger activity. This is an extremely sensitive test that can detect the activity of active ingredients present in very low concentrations.
The procedure used was adapted from Wang et al.. Briefly, 0.750 mL of a methanolic solution of each tested compound was treated with 1.5 mL of DPPH solution (0.004%) in MeOH. Samples were stored in the dark at room temperature for 30 min, and the absorbance value was read with a spectrophotometer at 517 nm, which is the maximum peak of absorbance relative to the DPPH radical absorption spectra. The values obtained were fitted into Equation (1) and converted to inhibition percentage (%) of the radical:DPPH inhibition percentage (%) = 100 × [1 − A1/A0](1) where A1 and A0 were, respectively, the absorbance recorded with and without the sample, which are directly proportional to DPPH residual concentration in the sample and DPPH concentration in the control (0.750 of MeOH and 1.5 mL of DPPH solution). […] A linear regression was performed to calculate the sample concentration able to eliminate 50% of DPPH free radicals.
A general note: DPPH is a stable violet radical that fades when it is reduced.

For another series, the system named is HaCat keratinocytes. The series can be described thus: Cell growth inhibition assay, HaCat. Format: cell-based, human. Conditions: 24 h incubation, cell count. The method, then:
All synthesized compounds were tested in order to evaluate their in vitro antiproliferative activity. The human melanoma Colo-38 cell line was selected as a tumor skin model, while the immortalized human HaCaT keratinocytes were chosen as a control for the evaluation of the cytotoxicity towards non-cancerous cells and of the selectivity towards tumor cell lines. […] The selectivity index (SI) was also calculated and is the ratio between the IC50 of a given compound towards the non-cancerous cell line and the IC50 of the same compound towards the tumor cell line.
Cell growth inhibition assays were carried out using human melanoma Colo-38 cells and skin HaCat keratinocytes cells. Human melanoma Colo-38 cells were kindly provided by Dr. Patrizio Giacomini (Laboratory of Immunology, Regina Elena Institute, Rome, Italy). HaCat cells were kindly provided by Istituto Zooprofilattico Sperimentale della Lombardia e dell’Emilia Romagna, Brescia, Italy. Cell lines were seeded using concentrations of 40,000 cells/mL and 25,000 cells/mL, respectively. Colo-38 cells were maintained in RPMI 1640, supplemented with 10% fetal bovine serum (FBS), penicillin (100 Units mL^−1), and streptomycin (100 µg mL^−1). HaCat cells were maintained in DMEM, supplemented with 10% fetal bovine serum (FBS), penicillin (100 Units mL^−1), streptomycin (100 µg mL^−1) and glutamine (2 mM); the incubation was performed at 37 °C in a 5% CO2 atmosphere. Tested compounds were dissolved in MeOH/DMSO (1:1) to obtain 50 mM stock solutions and diluted before cell treatment in MeOH 100%. The tested compounds were added at serial dilutions to the cell cultures (from 0.1 to 100 µM) and incubated for 24 h further. Cells were then harvested, suspended in physiological solution, and counted with a Z2 Coulter Counter (Coulter Electronics, Hialeah, FL, USA). The cell number/mL and the IC50 values were determined when untreated cells were in the log phase of cell growth. Cells treated with vehicles and untreated cells were placed in each plate.

In series [1], `O=C(C=Cc1ccccc1)Nc1nc2ccccc2s1` [BZTcin1, N-(benzo[d]thiazol-2-yl)cinnamamide] returned an SPF of 1.74, a UVA/UVB of 0.93, a UVAPF0 of 1.38 and a λc of 370 nm. Also, in series [2], the “ε (molar extinction coefficient)” value is on record as 33033.71 and the λmax is on record as 317.0 nm. For the same compound, in series [3], the FRAP is given as 98.69 ± 2.06 µmolTE/g. In series [4], this compound displayed an SPF of 2.33, a UVA/UVB of 0.93, a UVAPF of 1.48 and a λc of 364 nm. Moreover, the “DPPH (% Inhibition)” value in series [5] was determined as 0.51 ± 0.27%.
One may read the melting point as the temperature of the solid-liquid transition. On to `COc1ccc(/C=C/C(=O)Nc2nc3ccccc3s2)cc1` [BZTcin3, (E)-N-(benzo[d]thiazol-2-yl)-3-(4-methoxyphenyl)acrylamide], for which the melting point was 260 to 262 °C. In series [1], the SPF is on record as 1.32, the UVA/UVB is on record as 1.07, the UVAPF0 came out at 1.38 and the λc came out at 384 nm. In series [2], the “ε (molar extinction coefficient)” value came out at 36271.07 and the λmax is 334.5 nm. The same compound had an FRAP in series [3] of 42.12 ± 1.35 µmolTE/g. Besides, in series [4], the SPF amounted to 1.32, the UVA/UVB is 1.07, the UVAPF worked out at 1.36 and the λc is given as 384 nm. In addition, the “DPPH (% Inhibition)” value in series [5] was 5.77 ± 0.00%.
In series [1], `COc1ccc(/C=N/NC(=O)c2nc3ccccc3s2)cc1O` [BZTidr5, (E)-N′-(3-hydroxy-4-methoxybenzylidene)benzo[d]thiazole-2-carbohydrazide] displayed an SPF of 1.60, a UVA/UVB of 1.06, a UVAPF0 of 1.58 and a λc of 387 nm. Also, in series [2], the “ε (molar extinction coefficient)” value came out at 23462.08 and the λmax stood at 342.4 nm. For the same compound, the FRAP in series [3] was found to be 1758.16 ± 60.41 µmolTE/g. In addition, in series [4], the SPF came to 1.60, the UVA/UVB is listed as 1.06, the UVAPF is on record as 1.56 and the λc was found to be 387 nm. In series [5], the “DPPH (% Inhibition)” value came out at 44.00 ± 3.56%.
Regarding `COc1cc(/C=N/NC(=O)c2nc3ccccc3s2)ccc1O` [BZTidr6, (E)-N′-(3-methoxy-4-hydroxybenzylidene)benzo[d]thiazole-2-carbohydrazide], in series [1], the SPF is recorded as 1.24, the UVA/UVB came to 1.06, the UVAPF0 worked out at 1.36 and the λc was 389 nm. In series [2], the “ε (molar extinction coefficient)” value worked out at 22071.63 and the λmax came to 344.8 nm. For the same compound, the FRAP in series [3] was determined as 3826.51 ± 90.60 µmolTE/g. Besides, in series [4], the SPF came out at 1.24, the UVA/UVB stood at 1.06, the UVAPF was determined as 1.36 and the λc turned out to be 389 nm. Also, in series [5], the “DPPH (% Inhibition)” value is recorded as above 90.00% and the “DPPH IC50” value was 26.22 ± 1.81 µg/mL.
Regarding `O=C(O)/C=C/c1ccc(O)c(O)c1` [Caffeic acid, reference compound], the FRAP in series [3] is reported as 10,160.24 ± 21.48 µmolTE/g. Besides, in series [5], the “DPPH (% Inhibition)” value stood at 79.95 ± 0.88% and the “DPPH IC50” value is given as 5.26 ± 0.41 µg/mL.
A word on the IC50: it is the concentration at which inhibition is half-maximal. Low values mean greater potency, high ones weaker potency. In the case of `N.N.[Cl][Pt][Cl]` [Cisplatin, reference compound], 2 ± 0.4 µM corresponded to half-maximal inhibition in the series on HaCat keratinocytes (IC50).
Turning to `O=S(=O)(O)c1ccc2nc(-c3ccccc3)[nH]c2c1` [PBSA, 2-phenyl-1-H-benzimidazole-5-sulfonic acid, reference compound], in series [1], the SPF came out at 1.91, the UVA/UVB is 0.67, the UVAPF0 amounted to 1.13 and the λc is listed as 357 nm. Further, in series [2], the “ε (molar extinction coefficient)” value amounted to 23881.86; the λmax was 302.0 nm and 302 nm. Besides, the FRAP result in series [3] is reported as “<LOQ *”. For the same compound, in series [4], the SPF was 1.98, the UVA/UVB is on record as 0.67, the UVAPF amounted to 1.13 and the λc was determined as 355 nm. In series [5], the “DPPH (% Inhibition)” value is “<LOQ *”.
